pIC50: −log10 of the molar value.
Tested on: 885724-159-R-J1-PDC spheroids viability
Assay: Anticancer human tumor 885724-159-R-J1-PDC patient-derived pancreatic adenocarcinoma cell line growth inhibition [TAK]
Conditions: spheroids with HUVEC and MSC; for pIC50: curve of first compound; for viability, T/C: stronger effect = lower value
How it was run: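 Spheroids of 60% malignant cells, 25% HUVEC and 15% hMSC were exposed to targeted agents combined with TAK-243 or ipatasertib. Concentrations started at or near clinical Cmax (10 microM if unknown) and descended in half-log steps.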
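Also: spheroids exposed to drugs for seven days.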
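For viability, T/C in this document: 100% = DMSO vehicle control viability.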

Work on `CC(=O)Nc1cccc(-n2c(=O)n(C3CC3)c(=O)c3c(Nc4ccc(I)cc4F)n(C)c(=O)c(C)c32)c1` + CC(C)NCC(C(=O)N1CCN(c2ncnc3c2C(C)CC3O)CC1)c1ccc(Cl)cc1 yielded a pIC50 (second compound 0.3 µM) of 9.45, a pIC50 (second compound 0.949 µM) of 9.83 and a pIC50 (second compound 3 µM) of 9.93. It also gave a pIC50 (second compound 9.49 µM) of over 10.02, a pIC50 (second compound 30 µM) of over 10.02 and a viability, T/C (second compound 0.3 µM, first compound 94.9 pM) of 62.1%. For the same molecule, the viability, T/C (second compound 0.3 µM, first compound 0.0003 µM) was 52.4%, the viability, T/C (second compound 0.3 µM, first compound 0.000949 µM) was 39.4% and the viability, T/C (second compound 0.3 µM, first compound 0.003 µM) was 29.7%. The viability, T/C (second compound 0.3 µM, first compound 0.00949 µM) was 19.8%, the viability, T/C (second compound 0.3 µM, first compound 0.03 µM) was 12.7% and the viability, T/C (second compound 0.949 µM, first compound 94.9 pM) was 51.8%. It also gave a viability, T/C (second compound 0.949 µM, first compound 0.0003 µM) of 46.9%, a viability, T/C (second compound 0.949 µM, first compound 0.000949 µM) of 39.5% and a viability, T/C (second compound 0.949 µM, first compound 0.003 µM) of 26.4%. For the same molecule, the viability, T/C (second compound 0.949 µM, first compound 0.00949 µM) was 16.5%, the viability, T/C (second compound 0.949 µM, first compound 0.03 µM) was 9.03% and the viability, T/C (second compound 3 µM, first compound 94.9 pM) was 50.9%. For the same molecule, the viability, T/C (second compound 3 µM, first compound 0.0003 µM) was 47%, the viability, T/C (second compound 3 µM, first compound 0.000949 µM) was 37.3% and the viability, T/C (second compound 3 µM, first compound 0.003 µM) was 27.7%. The viability, T/C (second compound 3 µM, first compound 0.00949 µM) was 12.6%, the viability, T/C (second compound 3 µM, first compound 0.03 µM) was 7.15% and the viability, T/C (second compound 9.49 µM, first compound 94.9 pM) was 42.9%. For the same molecule, the viability, T/C (second compound 9.49 µM, first compound 0.0003 µM) was 39.1%, the viability, T/C (second compound 9.49 µM, first compound 0.000949 µM) was 31.9% and the viability, T/C (second compound 9.49 µM, first compound 0.003 µM) was 20.5%. The viability, T/C (second compound 9.49 µM, first compound 0.00949 µM) was 9.73%, the viability, T/C (second compound 9.49 µM, first compound 0.03 µM) was 4.47% and the viability, T/C (second compound 30 µM, first compound 94.9 pM) was 29.2%. The viability, T/C (second compound 30 µM, first compound 0.0003 µM) was 23.4%, the viability, T/C (second compound 30 µM, first compound 0.000949 µM) was 15.1% and the viability, T/C (second compound 30 µM, first compound 0.003 µM) was 6.5%. The viability, T/C (second compound 30 µM, first compound 0.00949 µM) was 4.94% and the viability, T/C (second compound 30 µM, first compound 0.03 µM) was 2.14%.

Work on `CC(C)CC(NC(=O)CNC(=O)c1cc(Cl)ccc1Cl)B1OC(=O)CC(CC(=O)O)(C(=O)O)O1` (stereo not given) + CC(C)NCC(C(=O)N1CCN(c2ncnc3c2C(C)CC3O)CC1)c1ccc(Cl)cc1 yielded a pIC50 (second compound 0.3 µM) of 7.86, a pIC50 (second compound 0.949 µM) of 7.92 and a pIC50 (second compound 3 µM) of 7.94. It also gave a pIC50 (second compound 9.49 µM) of over 9.50, a pIC50 (second compound 30 µM) of over 9.50 and a viability, T/C (second compound 0.3 µM, first compound 0.000316 µM) of 66.6%. For the same molecule, the viability, T/C (second compound 0.3 µM, first compound 0.001 µM) was 66.3%, the viability, T/C (second compound 0.3 µM, first compound 0.00316 µM) was 63.6% and the viability, T/C (second compound 0.3 µM, first compound 0.01 µM) was 63.3%. For the same molecule, the viability, T/C (second compound 0.3 µM, first compound 0.0316 µM) was 15.4%, the viability, T/C (second compound 0.3 µM, first compound 0.1 µM) was 1.16% and the viability, T/C (second compound 0.949 µM, first compound 0.000316 µM) was 57.5%. The viability, T/C (second compound 0.949 µM, first compound 0.001 µM) was 61%, the viability, T/C (second compound 0.949 µM, first compound 0.00316 µM) was 62.2% and the viability, T/C (second compound 0.949 µM, first compound 0.01 µM) was 58.3%. The viability, T/C (second compound 0.949 µM, first compound 0.0316 µM) was 8.98%, the viability, T/C (second compound 0.949 µM, first compound 0.1 µM) was 1.18% and the viability, T/C (second compound 3 µM, first compound 0.000316 µM) was 55.5%. It also gave a viability, T/C (second compound 3 µM, first compound 0.001 µM) of 58.3%, a viability, T/C (second compound 3 µM, first compound 0.00316 µM) of 53.1% and a viability, T/C (second compound 3 µM, first compound 0.01 µM) of 55.9%. For the same molecule, the viability, T/C (second compound 3 µM, first compound 0.0316 µM) was 11.1%, the viability, T/C (second compound 3 µM, first compound 0.1 µM) was 0.99% and the viability, T/C (second compound 9.49 µM, first compound 0.000316 µM) was 48.5%. The viability, T/C (second compound 9.49 µM, first compound 0.001 µM) was 52.1%, the viability, T/C (second compound 9.49 µM, first compound 0.00316 µM) was 48.5% and the viability, T/C (second compound 9.49 µM, first compound 0.01 µM) was 46.1%. For the same molecule, the viability, T/C (second compound 9.49 µM, first compound 0.0316 µM) was 9.27%, the viability, T/C (second compound 9.49 µM, first compound 0.1 µM) was 1.07% and the viability, T/C (second compound 30 µM, first compound 0.000316 µM) was 33.9%. The viability, T/C (second compound 30 µM, first compound 0.001 µM) was 33.5%, the viability, T/C (second compound 30 µM, first compound 0.00316 µM) was 34.7% and the viability, T/C (second compound 30 µM, first compound 0.01 µM) was 32.9%. For the same molecule, the viability, T/C (second compound 30 µM, first compound 0.0316 µM) was 7.76% and the viability, T/C (second compound 30 µM, first compound 0.1 µM) was 0.71%.
